# Measured values reported in patent publication US20250186323A1, “COMPOSITION FOR SKIN WHITENING COMPRISING CARVEDILOL” (GMEX (GLOBAL MEDICAL XYNAPSE), priority 2020, published 2025).
# Legend:
# MITF = MITF mRNA expression in NHMs; type: cell-based, human
# FSK-stimulated NHMs = assay: Melanin production in FSK-stimulated NHMs; type: cell-based, human; details: NHMs after FSK treatment (FIG. 3A)
# [1] = test system: cAMP/PKA/CREB signaling pathway; assay: Phospho-CREB and phospho-ERK expression in FSK-stimulated NHMs; type: cell-based, human; details: over time (FIG. 1D)
# Procedure: After NHMs were stimulated with FSK and treated with carvedilol, the expression levels of phospho-CREB and phospho-ERK were measured, and an intracellular signaling pathway which regulates MITF transcription was investigated.
# [2] = test system: melanin synthesis-related protein; assay: Expression of melanin synthesis-related protein in NHMs; type: cell-based, human; details: according to carvedilol treatment time (FIG. 1D)
# Source text: […], and then a cell growth rate, melanogenesis activity, tyrosinase activity, and the expression of a melanin synthesis-related protein were confirmed.
# tyrosinase = assay: Tyrosinase activity in NHMs; type: cell-based, human; details: carvedilol 2-10 μM, 5 days (FIG. 1C)
# Procedure: (§1) NHMs were treated with carvedilol at each concentration of 2 μM, 4 μM, 6 μM, 8 μM and 10 μM, cultured for 5 days, and then a cell growth rate, melanogenesis activity, tyrosinase activity, and the expression of a melanin synthesis-related protein were confirmed.
# [3] = test system: mouse melanocytes (mel-ab); assay: Melanin production in mouse melanocytes (mel-ab); type: cell-based; details: carvedilol by concentration (FIG. 2B)
# Source text: (§2) In addition to the result of Example 1 showing whitening activity in NHMs, the melanin inhibitory effect was confirmed by treating mouse melanocytes (mel-ab) with carvedilol.
# [4] = test system: mouse melanocytes (mel-ab); assay: Cell growth rate in mouse melanocytes (mel-ab); type: cell-based; details: up to 8 μM carvedilol (FIG. 2A)
# Source text: as §2
# [5] = test system: normal human melanocytes (NHMs); assay: Melanin production (melanogenesis activity) in NHMs; type: cell-based; details: carvedilol 2-10 μM, 5 days (FIG. 1B)
# Procedure: as §1
# [6] = test system: ex-vivo model of human skin tissue; assay: Ex-vivo human skin tissue model stimulated by UV irradiation
# Source text: To examine adaptation in actual clinical practice, an ex-vivo model of human skin tissue was stimulated by UV irradiation to induce melanin synthesis, and treated with carvedilol and cultured, and then a fragment was formed and subjected to Fontana-Masson staining.
# [7] = test system: normal human melanocytes (NHMs); assay: Cell growth rate in normal human melanocytes treated with carvedilol; type: cell-based; details: cultured for 5 days (FIG. 1A)
# Procedure: as §1
Structure (SMILES),MITF transcription (MITF; 10 μM FSK for 2 hours (FIG. 3B)),melanin production (FSK-stimulated NHMs),phospho-CREB expression [1],phospho-ERK expression [1],expression of a melanin synthesis-related protein [2],mRNA level of MITF (MITF; two hours after carvedilol treatment (FIG. 3C)),tyrosinase activity (tyrosinase),melanin production [3],cell growth rate [4],melanin production [5],"melanosome level (Fontana-Masson staining) ([6]; UV-irradiated ex-vivo human skin, carvedilol treated (FIG. 4A))","melanin index (proportion of Fontana-Masson-stained region) ([6]; UV-irradiated ex-vivo human skin, carvedilol treated (FIG. 4B))","melanin synthesis-related enzymes such as tyrosinase, TRP1 and DCT ([6]; UV-irradiated ex-vivo human skin, increased by UVR (FIG. 4C))","number of Melan-A (+) cells (melanocytes) ([6]; ex-vivo human skin, compared to UVR alone (FIG. 4D))","HMB45(+) melanocytes indicating melanocyte activity ([6]; ex-vivo human skin, increased by UVR treatment (FIG. 4E))",cell growth rate ([7]; 10 μM carvedilol),cell growth rate ([7]; up to 8 μM carvedilol)
C=C[C@@]1(C)CC(=O)[C@]2(O)[C@@]3(C)[C@@H](O)CCC(C)(C)[C@@H]3[C@H](O)[C@H](OC(C)=O)[C@@]2(C)O1 [FSK],maximally increased,–,–,–,–,–,–,–,–,–,–,–,–,–,–,–,–
COc1ccccc1OCCNCC(O)COc1cccc2[nH]c3ccccc3c12 (centres unmarked) [carvedilol],–,inhibits melanin production,reduced over time,no change,tends to decrease over time,maximally decreased,inhibited,effect of inhibiting melanin production,no effect,inhibited,melanosome reduction,decrease,reduced,does not affect,reduced,slightly reduced,no effect
